ChEMBL document CHEMBL1131732, “Potential anxiolytic agents. 3. Novel A-ring modified pyrido[1,2-a]benzimidazoles” (Bioorg Med Chem Lett, 1999)

What was measured:
Mus musculus [1] = assay: In vivo inhibitory activity against metrazole-induced seizures in mice by intraperitoneal administration; type: functional; details: ip
[2] = molecular target: GABA-A receptor; anion channel (Rattus norvegicus) (UniProt O09028+P15431+P18506+P18508+P19969+P20236+P23574+P23576+P28471+P28473+P30191+P62813+P63079+P63138+Q91ZM7+Q9ES14); assay: GABA shift which is the ratio of binding in the absence and presence of GABA (1 mM) was determined; type: protein-complex assay
Rattus norvegicus [3] = assay: Inhibitory activity determined by experimentally-induced conflict test in rats after oral administration; type: functional; details: read-out: MED
Mus musculus [4] = assay: In vivo inhibitory activity against metrazole-induced seizures in mice by peroral administration; type: functional; details: po
[5] = molecular target: GABA-A receptor; anion channel; assay: In vitro inhibitory against Gamma-aminobutyric acid A receptor from rat cerebral cortex using [3H]flunitrazepam as the radioligand; type: tissue-based
Rattus norvegicus [6] = assay: Inhibition of experimentally-induced conflict in rats following i.p. administration.; type: functional; details: ip, read-out: MED

O=C(Nc1ccccc1F)C1=C(O)CCn2c1nc1c3ccccc3ccc12
ED50 (Mus musculus [1]): > 1 mg/kg | GS [2]: 2.8 | minimal effective dose (Rattus norvegicus [3]): > 10 mg/kg | ED50 (Mus musculus [4]): > 30 mg/kg | IC50 [5]: 154 nM

O=C(Nc1c(F)cccc1F)C1=C(O)CCn2c1nc1c(Cl)cccc12
ED50 (Mus musculus [1]): 0.3 mg/kg | GS [2]: 1.7 | minimal effective dose (Rattus norvegicus [3]): > 10 mg/kg | ED50 (Mus musculus [4]): 10 mg/kg | minimal effective dose (Rattus norvegicus [6]): 10 mg/kg | IC50 [5]: 1.1 nM

O=C(Nc1ccccc1F)C1=C(O)CCn2c1nc1cccc(O)c12
ED50 (Mus musculus [1]): > 1 mg/kg | GS [2]: 2.8 | minimal effective dose (Rattus norvegicus [3]): > 30 mg/kg | ED50 (Mus musculus [4]): > 30 mg/kg | minimal effective dose (Rattus norvegicus [6]): > 1 mg/kg | IC50 [5]: 14 nM

O=C(Nc1c(F)cccc1F)C1=C(O)CCn2c1nc1cc(F)ccc12
ED50 (Mus musculus [1]): 0.3 mg/kg | GS [2]: 2.2 | minimal effective dose (Rattus norvegicus [3]): 3 mg/kg | ED50 (Mus musculus [4]): 3 mg/kg | minimal effective dose (Rattus norvegicus [6]): 3 mg/kg | IC50 [5]: 6.3 nM

O=C(Nc1c(F)cccc1F)C1=C(O)CCn2c1nc1ncccc12
ED50 (Mus musculus [1]): 3 mg/kg | GS [2]: 1.8 | minimal effective dose (Rattus norvegicus [3]): > 10 mg/kg | ED50 (Mus musculus [4]): 30 mg/kg | minimal effective dose (Rattus norvegicus [6]): > 10 mg/kg | IC50 [5]: 30.1 nM

O=C(Nc1ccccc1F)C1=C(O)CCn2c1nc1c(F)c(F)ccc12
ED50 (Mus musculus [1]): 0.2 mg/kg | GS [2]: 1.7 | minimal effective dose (Rattus norvegicus [3]): 10 mg/kg | ED50 (Mus musculus [4]): 0.2 mg/kg | IC50 [5]: 1.4 nM

O=C(Nc1ccccc1F)C1=C(O)CCn2c1nc1c(O)cccc12
GS [2]: 3 | minimal effective dose (Rattus norvegicus [3]): > 10 mg/kg | IC50 [5]: 10.4 nM

COc1ccc2c(c1)nc1n2CCC(O)=C1C(=O)Nc1ccccc1F
ED50 (Mus musculus [1]): > 10 mg/kg | GS [2]: 1.2 | minimal effective dose (Rattus norvegicus [3]): > 30 mg/kg | ED50 (Mus musculus [4]): > 10 mg/kg | minimal effective dose (Rattus norvegicus [6]): > 10 mg/kg | IC50 [5]: 6.1 nM

O=C(Nc1c(F)cccc1F)C1=C(O)CCn2c1nc1c(F)c(F)ccc12
ED50 (Mus musculus [1]): 0.2 mg/kg | GS [2]: 1.4 | minimal effective dose (Rattus norvegicus [3]): 3 mg/kg | ED50 (Mus musculus [4]): 0.2 mg/kg | IC50 [5]: 1.1 nM

O=C(Nc1ccccc1)C1=C(O)CCn2c1nc1cc(Cl)ccc12
ED50 (Mus musculus [1]): 1 mg/kg | GS [2]: 1.6 | minimal effective dose (Rattus norvegicus [3]): > 30 mg/kg | ED50 (Mus musculus [4]): 20 mg/kg | minimal effective dose (Rattus norvegicus [6]): 10 mg/kg | IC50 [5]: 65.6 nM

CN1C(=O)CN=C(c2ccccc2)c2cc(Cl)ccc21 [DIAZEPAM]
ED50 (Mus musculus [1]): 0.11 mg/kg | GS [2]: 2.2 | minimal effective dose (Rattus norvegicus [3]): 10 mg/kg | ED50 (Mus musculus [4]): 0.5 mg/kg | minimal effective dose (Rattus norvegicus [6]): 5 mg/kg

O=C(Nc1ccccc1F)C1=C(O)CCn2c1nc1c(F)cc(F)cc12
ED50 (Mus musculus [1]): > 1 mg/kg | GS [2]: 1.2 | minimal effective dose (Rattus norvegicus [3]): > 10 mg/kg | ED50 (Mus musculus [4]): > 1 mg/kg | IC50 [5]: 19.8 nM

O=C(Nc1ccccc1F)C1=C(O)CCn2c1nc1cc(F)ccc12
ED50 (Mus musculus [1]): < 1 mg/kg | GS [2]: 1.8 | minimal effective dose (Rattus norvegicus [3]): > 30 mg/kg | ED50 (Mus musculus [4]): > 30 mg/kg | minimal effective dose (Rattus norvegicus [6]): 10 mg/kg | IC50 [5]: 1.9 nM

O=C(Nc1ccccc1)C1=C(O)CCn2c1nc1cc(O)ccc12
ED50 (Mus musculus [1]): > 30 mg/kg | GS [2]: 1.1 | minimal effective dose (Rattus norvegicus [3]): > 30 mg/kg | ED50 (Mus musculus [4]): > 30 mg/kg | minimal effective dose (Rattus norvegicus [6]): > 30 mg/kg | IC50 [5]: 40.5 nM

O=C(Nc1ccccc1F)C1=C(O)CCn2c1nc1cc3ccccc3cc12
ED50 (Mus musculus [1]): 1 mg/kg | GS [2]: 1 | minimal effective dose (Rattus norvegicus [3]): > 10 mg/kg | ED50 (Mus musculus [4]): > 30 mg/kg | minimal effective dose (Rattus norvegicus [6]): 10 mg/kg | IC50 [5]: 17 nM

O=C(Nc1ccccc1)C1=C(O)CCn2c1nc1ccc(Cl)cc12
ED50 (Mus musculus [1]): > 10 mg/kg | GS [2]: 2.1 | minimal effective dose (Rattus norvegicus [3]): 30 mg/kg | ED50 (Mus musculus [4]): > 30 mg/kg | minimal effective dose (Rattus norvegicus [6]): > 10 mg/kg | IC50 [5]: 174 nM

O=C(Nc1c(F)cccc1F)C1=C(O)CCn2c1nc1c(F)cc(F)cc12
ED50 (Mus musculus [1]): > 1 mg/kg | GS [2]: 2.4 | minimal effective dose (Rattus norvegicus [3]): > 10 mg/kg | ED50 (Mus musculus [4]): > 1 mg/kg | IC50 [5]: 30.1 nM

O=C(Nc1ccccc1F)C1=C(O)CCn2c1nc1ccc(F)c(F)c12
ED50 (Mus musculus [1]): > 1 mg/kg | GS [2]: 2.5 | minimal effective dose (Rattus norvegicus [3]): > 10 mg/kg | ED50 (Mus musculus [4]): > 1 mg/kg | IC50 [5]: 857 nM

O=C(Nc1ccccc1F)C1=C(O)CCn2c1nc1cc(C(F)(F)F)ccc12
ED50 (Mus musculus [1]): 1 mg/kg | GS [2]: 4.7 | minimal effective dose (Rattus norvegicus [3]): > 10 mg/kg | IC50 [5]: 184 nM

O=C(Nc1ccccc1F)C1=C(O)CCn2c1nc1cc(Cl)ccc12
ED50 (Mus musculus [1]): 1 mg/kg | GS [2]: 1.8 | minimal effective dose (Rattus norvegicus [3]): > 10 mg/kg | ED50 (Mus musculus [4]): ~30 mg/kg | minimal effective dose (Rattus norvegicus [6]): 10 mg/kg | IC50 [5]: 5.1 nM

O=C(Nc1c(F)cccc1F)C1=C(O)CCn2c1nc1ccc(F)c(F)c12
ED50 (Mus musculus [1]): > 1 mg/kg | GS [2]: 1.7 | minimal effective dose (Rattus norvegicus [3]): > 10 mg/kg | ED50 (Mus musculus [4]): > 1 mg/kg | IC50 [5]: 66.2 nM

COc1ccc2c(c1)nc1n2CCC(O)=C1C(=O)Nc1ccccc1
ED50 (Mus musculus [1]): 3 mg/kg | GS [2]: 2.5 | minimal effective dose (Rattus norvegicus [3]): > 30 mg/kg | ED50 (Mus musculus [4]): > 10 mg/kg | minimal effective dose (Rattus norvegicus [6]): > 10 mg/kg | IC50 [5]: 39.5 nM

O=C(Nc1ccccc1F)C1=C(O)CCn2c1nc1cccnc12
ED50 (Mus musculus [1]): > 10 mg/kg | GS [2]: 1.3 | minimal effective dose (Rattus norvegicus [3]): > 30 mg/kg | ED50 (Mus musculus [4]): > 10 mg/kg | minimal effective dose (Rattus norvegicus [6]): > 10 mg/kg | IC50 [5]: 291 nM

O=C(Nc1ccccc1F)C1=C(O)CCn2c1nc1ncccc12
ED50 (Mus musculus [1]): 1 mg/kg | GS [2]: 2.7 | minimal effective dose (Rattus norvegicus [3]): > 30 mg/kg | ED50 (Mus musculus [4]): 10 mg/kg | minimal effective dose (Rattus norvegicus [6]): 10 mg/kg | IC50 [5]: 3.5 nM

O=C(Nc1ccccc1)C1=C(O)CCn2c1nc1ncccc12
ED50 (Mus musculus [1]): 3 mg/kg | GS [2]: 3 | minimal effective dose (Rattus norvegicus [3]): 30 mg/kg | ED50 (Mus musculus [4]): < 30 mg/kg | minimal effective dose (Rattus norvegicus [6]): > 10 mg/kg | IC50 [5]: 8.3 nM

O=C(Nc1ccccc1)C1=C(O)CCn2c1nc1cccnc12
ED50 (Mus musculus [1]): > 10 mg/kg | GS [2]: 2.1 | minimal effective dose (Rattus norvegicus [3]): > 30 mg/kg | ED50 (Mus musculus [4]): > 10 mg/kg | minimal effective dose (Rattus norvegicus [6]): > 10 mg/kg | IC50 [5]: 4380 nM

COc1cccc2c1nc1n2CCC(O)=C1C(=O)Nc1ccccc1F
GS [2]: 1.4 | IC50 [5]: 7.8 nM

O=C(Nc1ccccc1F)C1=C(O)CCn2c1nc1ccc3ccccc3c12
ED50 (Mus musculus [1]): > 1 mg/kg | minimal effective dose (Rattus norvegicus [3]): > 10 mg/kg | ED50 (Mus musculus [4]): > 30 mg/kg | IC50 [5]: > 1000 nM

Cc1cccc2c1nc1n2CCC(O)=C1C(=O)Nc1ccccc1F
ED50 (Mus musculus [1]): 1 mg/kg | GS [2]: 1.5 | minimal effective dose (Rattus norvegicus [3]): > 30 mg/kg | ED50 (Mus musculus [4]): 10 mg/kg | minimal effective dose (Rattus norvegicus [6]): 10 mg/kg | IC50 [5]: 96.3 nM

O=C(Nc1ccccc1F)C1=C(O)CCn2c1nc1c(Cl)cccc12
ED50 (Mus musculus [1]): 1 mg/kg | GS [2]: 1.8 | minimal effective dose (Rattus norvegicus [3]): > 10 mg/kg | ED50 (Mus musculus [4]): > 30 mg/kg | minimal effective dose (Rattus norvegicus [6]): 10 mg/kg | IC50 [5]: 7.1 nM

O=C(Nc1c(F)cccc1F)C1=C(O)CCn2c1nc1cc(Cl)ccc12
ED50 (Mus musculus [1]): 1 mg/kg | GS [2]: 2.2 | minimal effective dose (Rattus norvegicus [3]): 10 mg/kg | ED50 (Mus musculus [4]): 10 mg/kg | minimal effective dose (Rattus norvegicus [6]): 10 mg/kg | IC50 [5]: 6.3 nM

Cc1cccc2c1nc1n2CCC(O)=C1C(=O)Nc1ccccc1
ED50 (Mus musculus [1]): ~1 mg/kg | GS [2]: 2.8 | minimal effective dose (Rattus norvegicus [3]): > 30 mg/kg | ED50 (Mus musculus [4]): > 10 mg/kg | minimal effective dose (Rattus norvegicus [6]): > 10 mg/kg | IC50 [5]: 10.1 nM

O=C(Nc1c(F)cccc1F)C1=C(O)CCn2c1nc1cnccc12
ED50 (Mus musculus [1]): > 10 mg/kg | GS [2]: 2.4 | minimal effective dose (Rattus norvegicus [3]): 3 mg/kg | IC50 [5]: 17.7 nM

COc1cccc2c1nc1n2CCC(O)=C1C(=O)Nc1c(F)cccc1F
GS [2]: 3.7 | IC50 [5]: 156 nM
